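Grown in 96-well plates, cells were treated for 48 hours with each compound at five concentrations. Insufficient inhibition: endpoint recorded as highest concentration tested. TGI marks complete inhibition of growth.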
Test system: SF-539 CNS
Test: DTP human tumour cell line panel, 48 h

**Q.** `CC1=C(O)C(=O)C(C2=C(O)C(=O)C(C)=C(O)C2=O)=C(O)C1=O` was tested. Which TGI did it give?
**A.** > 100 µM

Test system: SK-MEL-2 melanoma
Test: DTP human tumour cell line panel, 48 h

**Q.** With `CCOC(=O)C1C(O)CC2c3ccccc3-c3ccccc3C21` (stereo unspecified) as the compound, how does the TGI read?
**A.** > 100 µM

**Q.** For `CC/C=C/C[C@H](O[Si](C)(C)C(C)(C)C)[C@H]1C[C@H]2O[C@H]([C@@H](O)C#C[Si](C)(C)C)C[C@H]2O1`, which TGI is on record?
**A.** 31.3 µM

**Q.** For `COc1ccc(NC2=NCCO2)c2c1CCCC2`, which TGI is on record?
**A.** 42.6 µM

**Q.** With `O=c1cc(-c2ccccc2)c2ccc(O)c(CN(CCCl)CCCl)c2o1` as the compound, how does the TGI read?
**A.** 59.8 µM

Test system: SK-MEL-28 melanoma
Test: DTP human tumour cell line panel, 48 h

**Q.** Which TGI does the source give for `CCOC(=O)C1C(O)CC2c3ccccc3-c3ccccc3C21` (stereo unspecified) here?
**A.** > 100 µM

**Q.** For `CC/C=C/C[C@H](O[Si](C)(C)C(C)(C)C)[C@H]1C[C@H]2O[C@H]([C@@H](O)C#C[Si](C)(C)C)C[C@H]2O1`, which TGI is on record?
**A.** 29.7 µM

**Q.** `COc1ccc(NC2=NCCO2)c2c1CCCC2` was tested. Which TGI did it give?
**A.** > 100 µM

**Q.** With `O=c1cc(-c2ccccc2)c2ccc(O)c(CN(CCCl)CCCl)c2o1` as the compound, how does the TGI read?
**A.** 36.7 µM

**Q.** With `CC1=C(O)C(=O)C(C2=C(O)C(=O)C(C)=C(O)C2=O)=C(O)C1=O` as the compound, how does the TGI read?
**A.** > 100 µM

Test system: SK-MEL-5 melanoma
Test: DTP human tumour cell line panel, 48 h

**Q.** For `CCOC(=O)C1C(O)CC2c3ccccc3-c3ccccc3C21` (stereo unspecified), which TGI is on record?
**A.** > 100 µM

**Q.** For `CC/C=C/C[C@H](O[Si](C)(C)C(C)(C)C)[C@H]1C[C@H]2O[C@H]([C@@H](O)C#C[Si](C)(C)C)C[C@H]2O1`, which TGI is on record?
**A.** 20 µM

**Q.** With `COc1ccc(NC2=NCCO2)c2c1CCCC2` as the compound, how does the TGI read?
**A.** 33.7 µM

**Q.** For `O=c1cc(-c2ccccc2)c2ccc(O)c(CN(CCCl)CCCl)c2o1`, which TGI is on record?
**A.** 31 µM

**Q.** `CC1=C(O)C(=O)C(C2=C(O)C(=O)C(C)=C(O)C2=O)=C(O)C1=O` was tested. Which TGI did it give?
**A.** 67.9 µM

Test system: SK-OV-3 ovarian
Test: DTP human tumour cell line panel, 48 h

**Q.** `CCOC(=O)C1C(O)CC2c3ccccc3-c3ccccc3C21` (stereo unspecified) was tested. Which TGI did it give?
**A.** 45.5 µM

**Q.** Which TGI does the source give for `CC/C=C/C[C@H](O[Si](C)(C)C(C)(C)C)[C@H]1C[C@H]2O[C@H]([C@@H](O)C#C[Si](C)(C)C)C[C@H]2O1` here?
**A.** 28.9 µM

**Q.** How did the TGI turn out when `COc1ccc(NC2=NCCO2)c2c1CCCC2` was run?
**A.** 84.8 µM

**Q.** Which TGI does the source give for `CC1=C(O)C(=O)C(C2=C(O)C(=O)C(C)=C(O)C2=O)=C(O)C1=O` here?
**A.** > 100 µM

Test system: SN12C renal
Test: DTP human tumour cell line panel, 48 h

**Q.** How did the TGI turn out when `CCOC(=O)C1C(O)CC2c3ccccc3-c3ccccc3C21` (stereo unspecified) was run?
**A.** > 100 µM

**Q.** For `CC/C=C/C[C@H](O[Si](C)(C)C(C)(C)C)[C@H]1C[C@H]2O[C@H]([C@@H](O)C#C[Si](C)(C)C)C[C@H]2O1`, which TGI is on record?
**A.** 17.2 µM

**Q.** With `O=c1cc(-c2ccccc2)c2ccc(O)c(CN(CCCl)CCCl)c2o1` as the compound, how does the TGI read?
**A.** 38.5 µM

**Q.** With `CC1=C(O)C(=O)C(C2=C(O)C(=O)C(C)=C(O)C2=O)=C(O)C1=O` as the compound, how does the TGI read?
**A.** > 100 µM

Test system: SNB-19 CNS
Test: DTP human tumour cell line panel, 48 h

**Q.** `CCOC(=O)C1C(O)CC2c3ccccc3-c3ccccc3C21` (stereo unspecified) was tested. Which TGI did it give?
**A.** > 100 µM

**Q.** Which TGI does the source give for `CC/C=C/C[C@H](O[Si](C)(C)C(C)(C)C)[C@H]1C[C@H]2O[C@H]([C@@H](O)C#C[Si](C)(C)C)C[C@H]2O1` here?
**A.** 26.9 µM

**Q.** Which TGI does the source give for `COc1ccc(NC2=NCCO2)c2c1CCCC2` here?
**A.** > 100 µM

**Q.** `O=c1cc(-c2ccccc2)c2ccc(O)c(CN(CCCl)CCCl)c2o1` was tested. Which TGI did it give?
**A.** 47 µM

**Q.** With `CC1=C(O)C(=O)C(C2=C(O)C(=O)C(C)=C(O)C2=O)=C(O)C1=O` as the compound, how does the TGI read?
**A.** > 100 µM

Test system: SNB-75 CNS
Test: DTP human tumour cell line panel, 48 h

**Q.** Which TGI does the source give for `CCOC(=O)C1C(O)CC2c3ccccc3-c3ccccc3C21` (stereo unspecified) here?
**A.** 67.1 µM

**Q.** Which TGI does the source give for `CC/C=C/C[C@H](O[Si](C)(C)C(C)(C)C)[C@H]1C[C@H]2O[C@H]([C@@H](O)C#C[Si](C)(C)C)C[C@H]2O1` here?
**A.** 31 µM

**Q.** Which TGI does the source give for `COc1ccc(NC2=NCCO2)c2c1CCCC2` here?
**A.** 93.9 µM

**Q.** How did the TGI turn out when `O=c1cc(-c2ccccc2)c2ccc(O)c(CN(CCCl)CCCl)c2o1` was run?
**A.** 38.9 µM

**Q.** How did the TGI turn out when `CC1=C(O)C(=O)C(C2=C(O)C(=O)C(C)=C(O)C2=O)=C(O)C1=O` was run?
**A.** > 100 µM

Test system: SR leukemia
Test: DTP human tumour cell line panel, 48 h

**Q.** `CCOC(=O)C1C(O)CC2c3ccccc3-c3ccccc3C21` (stereo unspecified) was tested. Which TGI did it give?
**A.** > 100 µM

**Q.** `CC/C=C/C[C@H](O[Si](C)(C)C(C)(C)C)[C@H]1C[C@H]2O[C@H]([C@@H](O)C#C[Si](C)(C)C)C[C@H]2O1` was tested. Which TGI did it give?
**A.** 7.66 µM

**Q.** How did the TGI turn out when `COc1ccc(NC2=NCCO2)c2c1CCCC2` was run?
**A.** 88.2 µM

**Q.** How did the TGI turn out when `O=c1cc(-c2ccccc2)c2ccc(O)c(CN(CCCl)CCCl)c2o1` was run?
**A.** 33.1 µM

**Q.** How did the TGI turn out when `CC1=C(O)C(=O)C(C2=C(O)C(=O)C(C)=C(O)C2=O)=C(O)C1=O` was run?
**A.** > 100 µM

Test system: SW-620 colon
Test: DTP human tumour cell line panel, 48 h

**Q.** How did the TGI turn out when `CCOC(=O)C1C(O)CC2c3ccccc3-c3ccccc3C21` (stereo unspecified) was run?
**A.** > 100 µM

**Q.** How did the TGI turn out when `CC/C=C/C[C@H](O[Si](C)(C)C(C)(C)C)[C@H]1C[C@H]2O[C@H]([C@@H](O)C#C[Si](C)(C)C)C[C@H]2O1` was run?
**A.** 37.7 µM

**Q.** With `COc1ccc(NC2=NCCO2)c2c1CCCC2` as the compound, how does the TGI read?
**A.** > 100 µM

**Q.** Which TGI does the source give for `O=c1cc(-c2ccccc2)c2ccc(O)c(CN(CCCl)CCCl)c2o1` here?
**A.** 69.7 µM

**Q.** For `CC1=C(O)C(=O)C(C2=C(O)C(=O)C(C)=C(O)C2=O)=C(O)C1=O`, which TGI is on record?
**A.** > 100 µM

Test system: T-47D breast
Test: DTP human tumour cell line panel, 48 h

**Q.** For `CCOC(=O)C1C(O)CC2c3ccccc3-c3ccccc3C21` (stereo unspecified), which TGI is on record?
**A.** > 100 µM

**Q.** With `CC/C=C/C[C@H](O[Si](C)(C)C(C)(C)C)[C@H]1C[C@H]2O[C@H]([C@@H](O)C#C[Si](C)(C)C)C[C@H]2O1` as the compound, how does the TGI read?
**A.** 23.2 µM

**Q.** For `COc1ccc(NC2=NCCO2)c2c1CCCC2`, which TGI is on record?
**A.** > 100 µM

**Q.** How did the TGI turn out when `O=c1cc(-c2ccccc2)c2ccc(O)c(CN(CCCl)CCCl)c2o1` was run?
**A.** 55.6 µM

**Q.** For `CC1=C(O)C(=O)C(C2=C(O)C(=O)C(C)=C(O)C2=O)=C(O)C1=O`, which TGI is on record?
**A.** > 100 µM

Test system: TK-10 renal
Test: DTP human tumour cell line panel, 48 h

**Q.** Which TGI does the source give for `CCOC(=O)C1C(O)CC2c3ccccc3-c3ccccc3C21` (stereo unspecified) here?
**A.** > 100 µM

**Q.** Which TGI does the source give for `CC/C=C/C[C@H](O[Si](C)(C)C(C)(C)C)[C@H]1C[C@H]2O[C@H]([C@@H](O)C#C[Si](C)(C)C)C[C@H]2O1` here?
**A.** 30 µM

**Q.** `COc1ccc(NC2=NCCO2)c2c1CCCC2` was tested. Which TGI did it give?
**A.** > 100 µM

Test system: U251 CNS
Test: DTP human tumour cell line panel, 48 h

**Q.** For `CCOC(=O)C1C(O)CC2c3ccccc3-c3ccccc3C21` (stereo unspecified), which TGI is on record?
**A.** 75.5 µM

**Q.** `CC/C=C/C[C@H](O[Si](C)(C)C(C)(C)C)[C@H]1C[C@H]2O[C@H]([C@@H](O)C#C[Si](C)(C)C)C[C@H]2O1` was tested. Which TGI did it give?
**A.** 30.2 µM

**Q.** For `COc1ccc(NC2=NCCO2)c2c1CCCC2`, which TGI is on record?
**A.** > 100 µM

**Q.** Which TGI does the source give for `O=c1cc(-c2ccccc2)c2ccc(O)c(CN(CCCl)CCCl)c2o1` here?
**A.** 56.9 µM

**Q.** For `CC1=C(O)C(=O)C(C2=C(O)C(=O)C(C)=C(O)C2=O)=C(O)C1=O`, which TGI is on record?
**A.** > 100 µM

Test system: UACC-257 melanoma
Test: DTP human tumour cell line panel, 48 h

**Q.** For `CCOC(=O)C1C(O)CC2c3ccccc3-c3ccccc3C21` (stereo unspecified), which TGI is on record?
**A.** > 100 µM

**Q.** `CC/C=C/C[C@H](O[Si](C)(C)C(C)(C)C)[C@H]1C[C@H]2O[C@H]([C@@H](O)C#C[Si](C)(C)C)C[C@H]2O1` was tested. Which TGI did it give?
**A.** 23.2 µM

**Q.** For `COc1ccc(NC2=NCCO2)c2c1CCCC2`, which TGI is on record?
**A.** > 100 µM

**Q.** With `O=c1cc(-c2ccccc2)c2ccc(O)c(CN(CCCl)CCCl)c2o1` as the compound, how does the TGI read?
**A.** 33.9 µM

**Q.** With `CC1=C(O)C(=O)C(C2=C(O)C(=O)C(C)=C(O)C2=O)=C(O)C1=O` as the compound, how does the TGI read?
**A.** > 100 µM

Test system: UACC-62 melanoma
Test: DTP human tumour cell line panel, 48 h

**Q.** `CCOC(=O)C1C(O)CC2c3ccccc3-c3ccccc3C21` (stereo unspecified) was tested. Which TGI did it give?
**A.** > 100 µM

**Q.** `CC/C=C/C[C@H](O[Si](C)(C)C(C)(C)C)[C@H]1C[C@H]2O[C@H]([C@@H](O)C#C[Si](C)(C)C)C[C@H]2O1` was tested. Which TGI did it give?
**A.** 34.1 µM

**Q.** For `COc1ccc(NC2=NCCO2)c2c1CCCC2`, which TGI is on record?
**A.** 89.2 µM

**Q.** Which TGI does the source give for `O=c1cc(-c2ccccc2)c2ccc(O)c(CN(CCCl)CCCl)c2o1` here?
**A.** 51.6 µM

**Q.** For `CC1=C(O)C(=O)C(C2=C(O)C(=O)C(C)=C(O)C2=O)=C(O)C1=O`, which TGI is on record?
**A.** 54 µM

Test system: UO-31 renal
Test: DTP human tumour cell line panel, 48 h

**Q.** `CCOC(=O)C1C(O)CC2c3ccccc3-c3ccccc3C21` (stereo unspecified) was tested. Which TGI did it give?
**A.** > 100 µM

**Q.** Which TGI does the source give for `CC/C=C/C[C@H](O[Si](C)(C)C(C)(C)C)[C@H]1C[C@H]2O[C@H]([C@@H](O)C#C[Si](C)(C)C)C[C@H]2O1` here?
**A.** 27.6 µM

**Q.** Which TGI does the source give for `COc1ccc(NC2=NCCO2)c2c1CCCC2` here?
**A.** > 100 µM

**Q.** With `O=c1cc(-c2ccccc2)c2ccc(O)c(CN(CCCl)CCCl)c2o1` as the compound, how does the TGI read?
**A.** 36.9 µM

**Q.** With `CC1=C(O)C(=O)C(C2=C(O)C(=O)C(C)=C(O)C2=O)=C(O)C1=O` as the compound, how does the TGI read?
**A.** > 100 µM

Reference: PubChem BioAssay (NCI)
